Structures are written as SMILES. pEC50: −log10 of the molar value.

The record followed here is ChEMBL document CHEMBL4431378, “Small Molecule Antagonists of the Nuclear Androgen Receptor for the Treatment of Castration-Resistant Prostate Cancer” (ACS Med Chem Lett, 2016).

This assay concerns the target T1, Androgen receptor (Homo sapiens, UniProt P10275).
T1 sequence (P10275 whole entry): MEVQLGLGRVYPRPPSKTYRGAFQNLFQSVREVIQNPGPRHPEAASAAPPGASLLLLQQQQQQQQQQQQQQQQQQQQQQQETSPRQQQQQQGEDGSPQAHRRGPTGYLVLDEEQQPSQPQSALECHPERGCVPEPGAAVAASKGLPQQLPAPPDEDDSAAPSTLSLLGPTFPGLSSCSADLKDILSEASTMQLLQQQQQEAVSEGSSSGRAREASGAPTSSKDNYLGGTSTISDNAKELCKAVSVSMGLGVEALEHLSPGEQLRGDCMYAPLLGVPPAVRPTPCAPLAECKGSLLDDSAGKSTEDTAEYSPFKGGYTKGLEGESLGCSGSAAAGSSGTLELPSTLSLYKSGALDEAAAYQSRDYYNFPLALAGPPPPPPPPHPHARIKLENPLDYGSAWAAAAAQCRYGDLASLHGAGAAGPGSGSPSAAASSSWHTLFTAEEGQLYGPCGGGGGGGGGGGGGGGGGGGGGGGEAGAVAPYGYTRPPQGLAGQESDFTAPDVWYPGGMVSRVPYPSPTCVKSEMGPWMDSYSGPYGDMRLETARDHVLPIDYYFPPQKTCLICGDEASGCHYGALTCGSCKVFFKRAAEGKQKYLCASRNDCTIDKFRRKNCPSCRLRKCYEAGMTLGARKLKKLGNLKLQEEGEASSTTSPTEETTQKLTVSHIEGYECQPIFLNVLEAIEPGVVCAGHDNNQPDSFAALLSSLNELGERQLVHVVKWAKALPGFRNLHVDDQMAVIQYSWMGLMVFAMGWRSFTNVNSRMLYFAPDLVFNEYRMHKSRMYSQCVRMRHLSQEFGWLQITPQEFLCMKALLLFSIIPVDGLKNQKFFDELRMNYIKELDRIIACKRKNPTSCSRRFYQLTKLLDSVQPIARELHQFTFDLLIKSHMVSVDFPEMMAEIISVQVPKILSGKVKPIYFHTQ
Kind of assay: Antagonist activity at androgen receptor in human C4-2-PSA-rl cells incubated for 24 hrs in presence of androgen R1881 by dual-glo luciferase reporter gene assay. Format: cell-based.
`Cc1noc(C)c1CSCC(=O)N1CCN(c2ccccc2)CC1`: the pEC50 was less than 4.60.
In the case of `Cc1ccccc1N1CCN(C(=O)CN(C)Cc2ccccc2)CC1`, the pEC50 is less than 4.60.
Under `Cc1ccccc1N1CCN(C(=O)C[S+]([O-])Cc2c(C)noc2C)CC1` (stereo not given) stands less than 4.60; under `Cc1ccccc1N1CCN(C(=O)CSc2ccccc2)CC1`, less than 4.60.
Next, `Cc1ccc(N2CCN(C(=O)CSCc3c(C)noc3C)CC2)cc1`: less than 4.60; `Cc1ccccc1N1CCN(C(=O)COCc2c(C)noc2C)CC1`: less than 4.60.
Under `Cc1cccc(N2CCN(C(=O)CSCc3c(C)noc3C)CC2)c1` stands less than 4.60; under `COc1ccccc1N1CCN(C(=O)CSCc2c(C)noc2C)CC1`, less than 4.60; under `Cc1ccccc1N1CCN(C(=O)/C=C/c2ccccc2)CC1`, less than 4.60.
For `Cc1ccccc1N1CCN(C(=O)NCSCc2c(C)noc2C)CC1`, the pEC50 is less than 4.60.
Under `Cc1ccccc1N1CCC(OC(=O)NCSCc2c(C)noc2C)CC1` stands less than 4.60; under `Cc1ccc(Cl)cc1N1CCN(C(=O)[C@H]2C[C@H]2c2ccc(F)cc2)CC1`, 5.77.
Regarding `Cc1ccc(Cl)cc1N1CCN(C(=O)[C@@H]2C[C@@H]2c2ccc(F)cc2)CC1`, the pEC50 was 4.82.
Next, `Cc1ccc(Cl)cc1N1CCN(C(=O)C2CC2c2ccc(F)cc2)CC1` (racemic): 5.57; `Cc1ccccc1N1CCN(C(=O)[C@H]2C[C@@H]2c2ccccc2)CC1` (relative stereo): less than 4.60.
